What was measured:
[1] = test system: cerebral infarction rat model; assay: Motor function scale (5 grades) in cerebral infarction rat model; assay type: in vivo, Sprague-Dawley rats; settings: 24 h after onset
[2] = test system: cerebral infarction rat model; assay: Cerebral infarction rat model (thrombus injection): infarct and edema volume of TTC-stained cerebral coronal section; assay type: in vivo, Sprague-Dawley rats
Source text: Sprague-Dawley rats (male, 8 weeks old, obtained from Charles River Laboratories Japan, Inc.) were used to produce cerebral infarction rat models.
(§1) In the present examples, a cerebral infarction rat model shown in FIG. 1B was produced in order to realize a state where cerebral hemorrhage concomitantly occurs as a result of administration of a thrombolytic agent after the therapeutic time window of the thrombolytic therapy. A thrombus was formed by coagulating rat's autologous blood and thrombin as a gel in a polyethylene tube catheter having a diameter of 0.35 mm (PE-50, product of Becton, Dickinson and Company). The formed thrombus was left to stand overnight and then cut to have a length of 1 mm Using the catheter, the thrombus was injected from the external carotid artery (ECA) 1 to the middle cerebral artery (MCA) 2 of the rat under anesthesia with halothane at 1% by mass to 1.5% by mass. Thereafter, the thus-treated rat was measured for cerebral blood flow (CBF) using a laser Doppler flowmetry (AFL21, product of ADVANCE Co., Ltd., Tokyo) before and 30 min or 24 hours after injection of the thrombus.
In the thrombolytic therapy for the cerebral infarction rat models, t-PA serving as a thrombolytic agent (alteplase, product of Mitsubishi Tanabe Pharma Corporation) was injected for 30 min to the femoral vein of each cerebral infarction rat model 1 hour or 4 hours after the injection of the thrombus (10 mg/kg, 10% bolus administration and 90% drip infusion).
Twenty-four hours after the injection of the thrombus, halothane was excessively administered to the rats for euthanasia which were then perfused with PBS, to thereby prepare an unfixed cerebral coronal section.
The cerebral coronal section was stained with TTC at 37° C. for 15 min in PBS (pH 7.4) containing a triphenyltetrazolium salt (TTC) at 2% by mass, and then scanned with a scanner (CanoScan™, product of Canon Co.).
The cerebral infarction and the volume of edema were calculated according to Swanson, R. A., et al. (J. Cereb. Blood Flow Metab. (1990) 10:290-293).
(§2) The combined administration of the t-PA and the anti-VEGF antibody was performed as described in Example 2. The effects of the combined administration of the t-PA and the anti-VEGF antibody four hours after the onset of cerebral infarction induced by injection of the thrombus were evaluated by measuring the cerebral infarct volume, edema volume, cerebral hemorrhage volume, and motor function scale of the TTC-stained cerebral coronal section prepared 24 hours after the onset of cerebral infarction induced by injection of the thrombus.
The cerebral infarct volume and the edema volume of the TTC-stained cerebral coronal section were calculated according to Swanson, R. A., et al. (J. Cereb. Blood Flow Metab. (1990) 10:290-293). The statistical significance was validated by ANOVA (analysis of variance), and post hoc comparisons were performed by the Tukey method.

VEGF = assay: Western blotting of VEGF expression in cerebral infarction rat model; assay type: in vivo; settings: t-PA (with control antibody) four hours after onset of cerebral infarction (FIG. 3)
Procedure: In order to suppress or reduce concomitantly occurring cerebral hemorrhage and cerebral infarction exacerbation accompanied with the administration of the t-PA after an acute stage of cerebral infarction in human, 100 μg of rabbit anti-rat VEGF antibody IgG (RB-222, product of Lab Vision-NeoMarkers, hereinafter “anti-VEGF antibody”) was bolus administered together with the t-PA. In the control experiment, 100 μg of rabbit anti-human IgG (R5G10-048, product of OEM Concepts, hereinafter “control antibody”) was bolus administered together with the t-PA.
Using the total cell extract as a sample, western blotting was performed according to the method described in Shimohata, T., et al. (J. Cereb. Blood Flow Metab. (2007) 27:1463-1475).
The VEGF was detected using anti-VEGF antibody (SC-152, product of Santa Cruz Biotechnologies, dilution ratio: 1:200) as a primary antibody, and peroxidase-conjugated anti-rabbit IgG antibody (dilution ratio: 1:10,000) as a secondary antibody.
Also, in order to confirm that the amounts of the protein applied were uniform in all the samples, β-actin was detected by allowing anti-β-actin (SC-1616, product of Santa Cruz Biotechnologies, dilution ratio: 1:2,000) and the above secondary antibody to react on the blotting membrane from which the primary and secondary antibodies had been removed. […]

[3] = test system: cerebral infarction rat model; assay: Cerebral hemorrhage volume (hemoglobin concentration, spectrophotometer) in cerebral infarction rat model; assay type: in vivo, Sprague-Dawley rats; settings: SU1498 20 mg/kg in DMSO single bolus with t-PA four hours after onset; 24 h after onset; vs t-PA and DMSO; P=0.005 (FIG. 5C)
Source text: as §1, with “The formed thrombus was left to stand overnight and then cut to have a length of 1 mm Using the catheter, the thrombus was injected from the external carotid artery (ECA) 1 to the middle cerebral artery (MCA) 2 of the rat under anesthesia with halothane at 1% by mass to 1.5% by mass.” left out, “thrombus. […]” for “thrombus.”
as §2, with “thrombus. […]” for “thrombus.”

[4] = t-PA 10 mg/kg i.v. four hours after injection of thrombus, vs t-PA one hour after (FIG. 2C)

Row | Molecule | motor function scale (prognosis) ([1]; t-PA and control antibody four hours after onset, vs control antibody only (FIG. 4D)) | area where cerebral infarction occurred [2, 4] | hemorrhage in the area where cerebral infarction occurred [2, 4] | area where cerebral infarction occurred ([2]; t-PA 10 mg/kg i.v. one hour after injection of thrombus, section 24 h after, vs animal receiving no t-PA (FIG. 2B)) | expression level of the VEGF (western blot) (VEGF) | motor function scale (prognosis) ([1]; SU1498 20 mg/kg with t-PA four hours after onset, vs t-PA and DMSO, n=10 (FIG. 5D)) | cerebral infarct volume ([2]; SU1498 20 mg/kg in DMSO single bolus with t-PA four hours after onset, 24 h after onset, vs t-PA and DMSO, n=6 (FIG. 5A)) | edema volume ([2]; SU1498 20 mg/kg in DMSO single bolus with t-PA four hours after onset, 24 h after onset, vs t-PA and DMSO, n=6 (FIG. 5B)) | cerebral hemorrhage volume (hemoglobin concentration) [3]
1 | t-PA: t-PA serving as a thrombolytic agent (alteplase, product of Mitsubishi Tanabe Pharma Corporation) | worse in prognosis | enlargement | considerably observed | smaller | considerably increase | – | – | – | –
2 | CC(C)c1cc(/C=C(\C#N)C(=O)NCCCc2ccccc2)cc(C(C)C)c1O [SU1498, (E)-3-(3,5-diisopropyl-4-hydroxyphenyl)-2-((3-phenyl-n-propyl)amino-carbonyl)acrylonitrile] | – | – | – | – | – | better in prognosis | could not reduce | could not reduce | could reduce
